Patent publication US12065429B2, “Small molecule modulators of IL-17” (LEO Pharma A/S, priority 2022, dated 2024)
Values after ≈ are worked out from the molar mass of the structure shown.

How the values were obtained:
[1] = Human liver microsome (HLM) clearance assay; assay type: in vitro ADME; settings: human liver microsomes 0.5 mg/mL, NADPH 1 mM, 0.5 μM compound, 40 min
Method: Example 63: Human Liver Microsome (HLM) Clearance Assay
Samples were taken out before addition of NADPH, and at 5, 10, 20 and 40 minutes thereafter and protein precipitation using cold acetonitrile with added internal standard was performed prior to centrifugation and sample analysis using compound specific LCMS/MS methods. Control incubations in buffer and without NADPH were performed in the same manner. Compound depletion was determined and apparent clearance (CLapp) was calculated.

Solubility assay = assay type: physicochemical; settings: 0.067 M phosphate buffer pH 6.5, 24 hours shaking, from 10 mM DMSO stock; for solubility at 24 h: aqueous buffer, kinetic from dmso stock
Method: After centrifugation, the supernatant was analyzed by HPLC-UV. The solubility was defined as the concentration of the test substance in the selected solvent. It was determined by correlation with an external standard calibration curve.

SMILES	HLM Clapp [1] [mL/min/kg]	solubility at 24 h (Solubility assay) [µg/mL]	Solubility at pH 6.5 (Solubility assay) [μg/mL]
Cc1c(-c2ccc(NC(=O)[C@@H](NC(=O)c3ccnn3C(C)C)C(C3CC3)C3CC3)nc2F)c(C(F)(F)F)cc[n+]1[O-] (single isomer, unassigned) [Example 54]	63	< 1	
Cc1cc[n+]([O-])c(C)c1-c1ccc(NC(=O)[C@@H](NC(=O)c2ccnn2C(C)C)C(C2CC2)C2CC2)nc1F [Example 4, N-[(1S)-1-(dicyclopropylmethyl)-2-[[5-(2,4-dimethyl-1-oxido-pyridin-1-ium-3-yl)-6-fluoro-2-pyridyl]amino]-2-oxo-ethyl]-2-isopropyl-pyrazole-3-carboxamide]	9	74 (≈ 142 µM)	
CC(C)n1nccc1C(=O)N[C@H](C(=O)Nc1ccc(-c2c[n+]([O-])ccc2C(F)(F)F)c(F)n1)C(C1CC1)C1CC1 [Example 6, N-[(1S)-1-(dicyclopropylmethyl)-2-[[6-fluoro-5-[1-oxido-4-(trifluoromethyl)pyridin-1-ium-3-yl]-2-pyridyl]amino]-2-oxo-ethyl]-2-isopropyl-pyrazole-3-carboxamide]	14	5 (≈ 8.92 µM)	
CC(C)n1nccc1C(=O)N[C@H](C(=O)Nc1ccc(-c2ccc[n+]([O-])c2C2CC2)c(F)n1)C(C1CC1)C1CC1 [Example 7, N-[(1S)-2,2-dicyclopropyl-1-[[5-(2-cyclopropyl-1-oxido-pyridin-1-ium-3-yl)-6-fluoro-2-pyridyl]carbamoyl]ethyl]-2-isopropyl-pyrazole-3-carboxamide]	<8	38 (≈ 71.3 µM)	
Cc1c(-c2ccc(NC(=O)[C@@H](NC(=O)c3ccnn3C(C)C)C(C3CC3)C3CC3)nc2F)cc(OC(F)F)c[n+]1[O-] [Example 8, N-[(1S)-1-(dicyclopropylmethyl)-2-[[5-[5-(difluoromethoxy)-2-methyl-1-oxido-pyridin-1-ium-3-yl]-6-fluoro-2-pyridyl]amino]-2-oxo-ethyl]-2-isopropyl-pyrazole-3-carboxamide]	8	8 (≈ 14 µM)	
Cc1cc(-c2ccc(NC(=O)[C@@H](NC(=O)c3cnnn3C(C)C)C(C3CC3)C3CC3)nc2F)c(C)[n+]([O-])c1 [Example 23, N-[(1S)-1-(dicyclopropylmethyl)-2-[[5-(2,5-dimethyl-1-oxido-pyridin-1-ium-3-yl)-6-fluoro-2-pyridyl]amino]-2-oxo-ethyl]-3-isopropyl-triazole-4-carboxamide]	<8		
Cc1cc(-c2ccc(NC(=O)[C@@H](NC(=O)c3ccnn3C(F)F)C(C3CC3)C3CC3)nc2F)c(C)[n+]([O-])c1 [Example 26, N-[(1S)-1-(dicyclopropylmethyl)-2-[[5-(2,5-dimethyl-1-oxido-pyridin-1-ium-3-yl)-6-fluoro-2-pyridyl]amino]-2-oxo-ethyl]-2-(difluoromethyl)pyrazole-3-carboxamide]	<8		
Cc1cc(-c2ccc(NC(=O)[C@@H](NC(=O)c3ccnn3C3CC3)C(C3CC3)C3CC3)nc2F)c(C)[n+]([O-])c1 [Example 27, 2-cyclopropyl-N-[(1S)-1-(dicyclopropylmethyl)-2-[[5-(2,5-dimethyl-1-oxido-pyridin-1-ium-3-yl)-6-fluoro-2-pyridyl]amino]-2-oxo-ethyl]pyrazole-3-carboxamide]	<8		
Cc1cc(-c2ccc(NC(=O)[C@@H](NC(=O)c3ccnn3CC3CC(F)(F)C3)C(C3CC3)C3CC3)nc2F)c(C)[n+]([O-])c1 [Example 32, N-[(1S)-1-(dicyclopropylmethyl)-2-[[5-(2,5-dimethyl-1-oxido-pyridin-1-ium-3-yl)-6-fluoro-2-pyridyl]amino]-2-oxo-ethyl]-2-[(3,3-difluorocyclobutyl)methyl]pyrazole-3-carboxamide]	23		
CC(C)n1nccc1C(=O)N[C@H](C(=O)Nc1ccc(-c2c[n+]([O-])ccc2C2CC2)c(F)n1)C(C1CC1)C1CC1 [Example 47, N-[(1S)-2,2-dicyclopropyl-1-[[5-(4-cyclopropyl-1-oxido-pyridin-1-ium-3-yl)-6-fluoro-2-pyridyl]carbamoyl]ethyl]-2-isopropyl-pyrazole-3-carboxamide]	<8		

The remaining lines, values ahead:

HLM Clapp [1] [mL/min/kg]	solubility at 24 h (Solubility assay) [µg/mL]	Solubility at pH 6.5 (Solubility assay) [μg/mL]	SMILES
41		<1	Cc1c(-c2ccc(NC(=O)[C@@H](NC(=O)c3ccnn3C(C)C)C(C3CC3)C3CC3)nc2F)c(C(F)(F)F)cc[n+]1[O-] (single isomer, unassigned) [Example 55]
<8	26 (≈ 49.6 µM)		Cc1c(-c2ccc(NC(=O)[C@@H](NC(=O)c3ccnn3C(C)C)C(C3CC3)C3CC3)nc2F)cc(F)c[n+]1[O-] [Example 2, N-[(1S)-1-(dicyclopropylmethyl)-2-[[6-fluoro-5-(5-fluoro-2-methyl-1-oxido-pyridin-1-ium-3-yl)-2-pyridyl]amino]-2-oxo-ethyl]-2-isopropyl-pyrazole-3-carboxamide]
<8	35 (≈ 67.2 µM)		CCc1c(-c2ccc(NC(=O)[C@@H](NC(=O)c3ccnn3C(C)C)C(C3CC3)C3CC3)nc2F)ccc[n+]1[O-] [Example 5, N-[(1S)-1-(dicyclopropylmethyl)-2-[[5-(2-ethyl-1-oxido-pyridin-1-ium-3-yl)-6-fluoro-2-pyridyl]amino]-2-oxo-ethyl]-2-isopropyl-pyrazole-3-carboxamide]
<8	23 (≈ 41.5 µM)		Cc1c(-c2ccc(NC(=O)[C@@H](NC(=O)c3ccnn3C(C)C)C(C3CC3)C3CC3)nc2F)cc(OCF)c[n+]1[O-] [Example 9, N-[(1S)-1-(dicyclopropylmethyl)-2-[[6-fluoro-5-[5-(fluoromethoxy)-2-methyl-1-oxido-pyridin-1-ium-3-yl]-2-pyridyl]amino]-2-oxo-ethyl]-2-isopropyl-pyrazole-3-carboxamide]
<8			Cc1cc(-c2ccc(NC(=O)[C@@H](NC(=O)c3ccnn3CC(F)F)C(C3CC3)C3CC3)nc2F)c(C)[n+]([O-])c1 [Example 24, N-[(1S)-1-(dicyclopropylmethyl)-2-[[5-(2,5-dimethyl-1-oxido-pyridin-1-ium-3-yl)-6-fluoro-2-pyridyl]amino]-2-oxo-ethyl]-2-(2,2-difluoroethyl)pyrazole-3-carboxamide]
250			Cc1cc(-c2ccc(NC(=O)[C@@H](NC(=O)c3ccnn3C3CCC3)C(C3CC3)C3CC3)nc2F)c(C)[n+]([O-])c1 [Example 25, 2-cyclobutyl-N-[(1S)-1-(dicyclopropylmethyl)-2-[[5-(2,5-dimethyl-1-oxido-pyridin-1-ium-3-yl)-6-fluoro-2-pyridyl]amino]-2-oxo-ethyl]pyrazole-3-carboxamide]
>750			Cc1cc(-c2ccc(NC(=O)[C@@H](NC(=O)c3ccnn3CC(C)C)C(C3CC3)C3CC3)nc2F)c(C)[n+]([O-])c1 [Example 28, N-[(1S)-1-(dicyclopropylmethyl)-2-[[5-(2,5-dimethyl-1-oxido-pyridin-1-ium-3-yl)-6-fluoro-2-pyridyl]amino]-2-oxo-ethyl]-2-isobutyl-pyrazole-3-carboxamide]
8			Cc1cc(-c2ccc(NC(=O)[C@@H](NC(=O)c3ccnn3CC3CC3)C(C3CC3)C3CC3)nc2F)c(C)[n+]([O-])c1 [Example 29, 2-(cyclopropylmethyl)-N-[(1S)-1-(dicyclopropylmethyl)-2-[[5-(2,5-dimethyl-1-oxido-pyridin-1-ium-3-yl)-6-fluoro-2-pyridyl]amino]-2-oxo-ethyl]pyrazole-3-carboxamide]
